Measured values from the NIST ThermoML archive (doi:10.1016/j.jct.2005.04.018).

Conditions: Liquid; for speed of sound: Linear variable-path acoustic interferometer; for mass density: Vibrating tube method

CCCC[n+]1ccn(C)c1.O=S(=O)([N-]S(=O)(=O)C(F)(F)F)C(F)(F)F
Conditions	mass density [kg/m3]	speed of sound [m/s]
313.15 K, 10010 kPa	–	1228.7
313.15 K, 12380 kPa	1431.97	–
313.15 K, 14840 kPa	1433.7	–
313.15 K, 17300 kPa	1435.41	–
313.15 K, 19760 kPa	1437.1	–
313.15 K, 19960 kPa	–	1261.1
313.15 K, 22210 kPa	1438.8	–
313.15 K, 24670 kPa	1440.5	–
313.15 K, 27130 kPa	1442.16	–
313.15 K, 29590 kPa	1443.8	–
313.15 K, 32050 kPa	1445.44	–
313.15 K, 34510 kPa	1447.05	–
313.15 K, 36970 kPa	1448.67	–
313.15 K, 39430 kPa	1450.26	–
313.15 K, 41880 kPa	1451.88	–
313.15 K, 44340 kPa	1453.41	–
313.15 K, 46800 kPa	1455.01	–
313.15 K, 49260 kPa	1456.51	–
313.15 K, 51720 kPa	1458.07	–
313.15 K, 54180 kPa	1459.64	–
313.15 K, 56640 kPa	1461.15	–
313.15 K, 59100 kPa	1462.71	–
313.15 K, 59730 kPa	–	1373.5
313.15 K, 98970 kPa	–	1466.4
313.15 K, 150890 kPa	–	1573.2
318.14 K, 100 kPa	1418.06	–
318.14 K, 5000 kPa	1421.63	–
318.14 K, 7460 kPa	1423.41	–
318.14 K, 9920 kPa	1425.23	–
318.14 K, 12380 kPa	1427	–
318.14 K, 14840 kPa	1428.76	–
318.14 K, 17300 kPa	1430.5	–
318.14 K, 19760 kPa	1432.21	–
318.14 K, 22210 kPa	1433.93	–
318.14 K, 24670 kPa	1435.62	–
318.14 K, 27130 kPa	1437.31	–
318.14 K, 29590 kPa	1439.01	–
318.14 K, 32050 kPa	1440.66	–
318.14 K, 34510 kPa	1442.31	–
318.14 K, 36970 kPa	1443.93	–
318.14 K, 39430 kPa	1445.59	–
318.14 K, 41880 kPa	1447.2	–
318.14 K, 44340 kPa	1448.84	–
318.14 K, 46800 kPa	1450.43	–
318.14 K, 49260 kPa	1452.03	–
318.14 K, 51720 kPa	1453.64	–
318.14 K, 54180 kPa	1455.23	–
318.14 K, 56640 kPa	1456.83	–
318.14 K, 59100 kPa	1458.39	–
323.14 K, 100 kPa	1413.69	–
323.14 K, 5000 kPa	1417.31	–
323.14 K, 7460 kPa	1419.14	–
323.14 K, 9920 kPa	1420.97	–
323.14 K, 12380 kPa	1422.8	–
323.14 K, 14840 kPa	1424.57	–
323.14 K, 17300 kPa	1426.35	–
323.14 K, 19760 kPa	1428.11	–
323.14 K, 22210 kPa	1429.82	–
323.14 K, 24670 kPa	1431.56	–
323.14 K, 27130 kPa	1433.26	–
323.14 K, 29590 kPa	1434.96	–
323.14 K, 32050 kPa	1436.63	–
323.14 K, 34510 kPa	1438.32	–
323.14 K, 36970 kPa	1439.98	–
323.14 K, 39430 kPa	1441.63	–
323.14 K, 41880 kPa	1443.28	–
323.14 K, 44340 kPa	1444.91	–
323.14 K, 46800 kPa	1446.54	–
323.14 K, 49260 kPa	1448.18	–
323.14 K, 51720 kPa	1449.79	–
323.14 K, 54180 kPa	1451.4	–
323.14 K, 56640 kPa	1453.01	–
323.14 K, 59100 kPa	1454.62	–
323.15 K, 100 kPa	–	1172.6
323.15 K, 5050 kPa	–	1190.2
323.15 K, 10030 kPa	–	1207.8
323.15 K, 19940 kPa	–	1241
323.15 K, 59810 kPa	–	1355.9
323.15 K, 99220 kPa	–	1450.8
323.15 K, 150840 kPa	–	1557.4
328.2 K, 100 kPa	1408.32	–
328.2 K, 5000 kPa	1412.04	–
328.2 K, 7460 kPa	1413.97	–
328.2 K, 9920 kPa	1415.75	–
328.2 K, 12380 kPa	1417.61	–
328.2 K, 14840 kPa	1419.44	–
328.2 K, 17300 kPa	1421.25	–
328.2 K, 19760 kPa	1423.05	–
328.2 K, 22210 kPa	1424.84	–
328.2 K, 24670 kPa	1426.58	–
328.2 K, 27130 kPa	1428.34	–
328.2 K, 29590 kPa	1430.04	–
328.2 K, 32050 kPa	1431.76	–
328.2 K, 34510 kPa	1433.46	–
328.2 K, 36970 kPa	1435.15	–
328.2 K, 39430 kPa	1436.83	–
328.2 K, 41880 kPa	1438.52	–
328.2 K, 44340 kPa	1440.15	–
328.2 K, 46800 kPa	1441.79	–
328.2 K, 49260 kPa	1443.46	–
328.2 K, 51720 kPa	1445.11	–
328.2 K, 54180 kPa	1446.72	–
328.2 K, 56640 kPa	1448.35	–
328.2 K, 59100 kPa	1449.96	–
